For the test, the system named is alkaline phosphatase activity in T47D cells. The test can be described thus: Effects of progestins and antiprogestins on alkaline phosphatase activity in T47D cells (antagonist mode). The test is classed as cell-based. The conditions noted are these: Homo sapiens, in the presence of 1 nM progesterone, read-out: T47D Alkaline Phosphatase Activity IC50 (nM) or % inhibition; for IC50: 24 h; for inhibition at 3 µM: % inhibition at 3000 nM. As for the experimental part:
(1) Effects of Progestins and Antiprogestins on Alkaline Phosphatase Activity in T47D Cells
PURPOSE: To identify progestins or antiprogestins by determining a compound's effect on alkaline phosphatase activity in T47D cells.
Culture Medium: • DMEM:F12 (1:1) (GIBCO, BRL) supplemented with 5% (v/v) charcoal stripped fetal bovine serum (not heat-inactivated), 100 U/mL penicillin, 100 μg/mL streptomycin, and 2 mM the GlutaMax™ reagent (GIBCO, BRL).
Alkaline Phosphatase Assay Buffer: • I. 0.1M Tris-HCl, pH 9.8, containing 0.2% the Triton® X-100 reagent • II. 0.1M Tris-HCl, pH 9.8, containing 4 mM p-nitrophenyl phosphate (Sigma). B. Cell Culture and Treatment:
Frozen T47D cells were thawed in a 37° C. water bath and diluted to 280,000 cells/mL in culture medium. To each well in a 96-well plate (Falcon, Becton Dickinson Labware), 180 μL of diluted cell suspension was added.
Twenty μL of reference or test compounds diluted in the culture medium was then added to each well. When testing for progestin antagonist activity, reference antiprogestins or test compounds were added in the presence of 1 nM progesterone. The cells were incubated at 37° C. in a 5% CO2/humidified atmosphere for 24 h.
NOTE: For high throughput screening, one concentration of each compound was tested at 0.3 μg/mL. Based on an average molecular weight of 300 g/mol for the compounds in the library, the concentration was approximately 1 μM. Subsequently, active compounds were tested in dose response assays to determine EC50 and IC50. C. Alkaline Phosphatase Enzyme Assay:
At the end of treatment, the medium was removed from the plate. Fifty μL of assay buffer I was added to each well. The plates were shaken in a titer plate shaker for 15 min. Then 150 μL of assay buffer II was added to each well. Optical density measurements were taken at 5 min intervals for 30 min at a test wavelength of 405 nm.
For reference and test compounds, a dose response curve was generated for dose (X-axis) vs. the rate of enzyme reaction (slope) (Y-axis). Square root-transformed data was used for analysis of variance and nonlinear dose response curve fitting for both agonist and antagonist modes. Huber weighting was used to down-weight the effects of outliers. EC50 or IC50 values were calculated from the retransformed values. JMP software (SAS Institute, Inc.) was used for both one-way analysis of variance and non-linear dose response analysis in both single dose and dose response studies.
Progesterone and trimegestone were reference progestins and RU486 was the reference antiprogestin. All reference compounds were run in full dose response curves and the EC50 and IC50 values were calculated.

For `N#Cc1ccc(-c2csc(N3C(=O)OCC34CCC4)n2)cc1` [Example 27, 4-[2-(6-Oxo-7-oxa-5-azaspiro[3.4]oct-5-yl)-1,3-thiazol-4-yl]benzonitrile], the IC50 turned out to be 17.1 nM.

As to `CN1CCN(c2nc(-c3ccc(Br)cc3)cs2)C1=O` [Example 76, 1-[4-(4-Bromophenyl)-1,3-thiazol-2-yl]-3-methylimidazolidin-2-one], the IC50 stood at 733 nM.

Consider `CC1(C)COC(=S)N1c1nc(-c2ccc(C#N)cc2)cs1` [Example 82, 4-[2-(4,4-Dimethyl-2-thioxo-1,3-oxazolidin-3-yl)-1,3-thiazol-4-yl]benzonitrile], for which the IC50 was determined as 6.4 nM.

With `CN1CC(C)(C)N(c2nc(-c3ccc(C#N)cc3)cs2)C1=O` [Example 83, 4-[2-(3,5,5-Trimethyl-2-oxoimidazolidin-1-yl)-1,3-thiazol-4-yl]benzonitrile], the 50% inhibitory concentration (IC50) is 35.4 nM.

On to `CC1(C)CN(Cc2ccccc2)C(=O)N1c1nc(-c2ccc(C#N)cc2)cs1` [Example 84, 4-[2-(3-Benzyl-5,5-dimethyl-2-oxoimidazolidin-1-yl)-1,3-thiazol-4-yl]benzonitrile], for which the half-maximal inhibitory concentration (IC50) was determined as 77.9 nM.

Regarding `CC1(C)COC(=O)N1c1nc(-c2ccc(C(N)=NO)cc2)cs1` [Example 85, 4-[2-(4,4-Dimethyl-2-oxo-1,3-oxazolidin-3-yl)-1,3-thiazol-4-yl]-N′-hydroxybenzene carboximidamide], the IC50 was determined as 729 nM.

`CCC1(CC)COC(=O)N1c1nc2c(s1)CCc1cc(C#N)ccc1-2` [Example 86, 2-(4,4-Diethyl-2-oxo-1,3-oxazolidin-3-yl)-4,5-dihydronaphtho[1,2-d][1,3]thiazole-7-carbonitrile]: the half-inhibitory concentration (IC50) amounted to 5 nM.

As to `CC1(C)COC(=O)N1c1nc(-c2ccc(C#N)cc2)c(Cl)s1` [Example 90, 4-[5-Chloro-2-(4,4-dimethyl-2-oxo-1,3-oxazolidin-3-yl)-1,3-thiazol-4-yl]benzonitrile], the 50% inhibitory concentration (IC50) was found to be 43.5 nM.

Consider `O=C1OC[C@H](COCc2ccccc2)N1c1nc(-c2ccc(Br)cc2)cs1` [Example 91, (4S)-4-[(benzyloxy)methyl]-3-[4-(4-bromophenyl)-1,3-thiazol-2-yl]-1,3-oxazolidin-2-one], for which the inhibition at 3 µM was found to be 63%.

Regarding `CC1(C)COC(=O)N1c1nc(-c2ccc(C#N)cc2)co1` [Example 92, 4-[2-(4,4-dimethyl-2-oxo-1,3-oxazolidin-3-yl)-1,3-oxazol-4-yl]benzonitrile], the inhibition at 3 µM was 76%.

Turning to `CC1(C)COC(=O)N1c1nc(-c2ccc(Br)cc2)ns1` [Example 93, 3-[3-(4-Bromophenyl)-1,2,4-thiadiazol-5-yl]-4,4-dimethyl-1,3-oxazolidin-2-one], the half-maximal inhibitory concentration (IC50) is 135 nM.

With `CC1(C)COC(=O)N1c1nc(-c2ccc(C#N)cc2)ns1` [Example 94, 4-[5-(4,4-dimethyl-2-oxo-1,3-oxazolidin-3-yl)-1,2,4-thiadiazol-3-yl]benzonitrile], the concentration for half-maximal inhibition (IC50) came out at 146 nM.

With `CC1(C)COC(=O)N1c1nc(-c2ccc(C(F)(F)F)cc2)cs1` [Example 95, 4,4-Dimethyl-3-{4-[4-(trifluoromethyl)phenyl]-1,3-thiazol-2-yl}-1,3-oxazolidin-2-one], the half-maximal inhibitory concentration (IC50) amounted to 108 nM.

With `CC1(C)COC(=O)N1c1nc(-c2cccc(C(F)(F)F)c2)cs1` [Example 96, 4,4-Dimethyl-3-{4-[3-(trifluoromethyl)phenyl]-1,3-thiazol-2-yl}-1,3-oxazolidin-2-one], the concentration for half-maximal inhibition (IC50) was determined as 328 nM.

For the compound `CC1(C)COC(=O)N1c1nc(-c2ccc(OC(F)(F)F)cc2)cs1` [Example 97, 4,4-Dimethyl-3-{4-[4-(trifluoromethoxy)phenyl]-1,3-thiazol-2-yl}-1,3-oxazolidin-2-one], the IC50 was 285 nM.

Consider `COc1ccc(-c2csc(N3C(=O)OCC3(C)C)n2)cc1` [Example 98, 3-[4-(4-Methoxyphenyl)-1,3-thiazol-2-yl]-4,4-dimethyl-1,3-oxazolidin-2-one], for which the half-maximal inhibitory concentration (IC50) came out at 191 nM.

In the case of `COc1cccc(-c2csc(N3C(=O)OCC3(C)C)n2)c1` [Example 99, 3-[4-(3-Methoxyphenyl)-1,3-thiazol-2-yl]-4,4-dimethyl-1,3-oxazolidin-2-one], the IC50 stood at 64.6 nM.

On to `COc1ccccc1-c1csc(N2C(=O)OCC2(C)C)n1` [Example 100, 3-[4-(2-Methoxyphenyl)-1,3-thiazol-2-yl]-4,4-dimethyl-1,3-oxazolidin-2-one], for which the IC50 turned out to be 854 nM.

For the compound `CC1(C)COC(=O)N1c1nc(-c2c(F)cc(F)cc2F)cs1` [Example 101, 4,4-Dimethyl-3-[4-(2,4,6-trifluorophenyl)-1,3-thiazol-2-yl]-1,3-oxazolidin-2-one], the half-inhibitory concentration (IC50) worked out at 536 nM.

As for `CCS(=O)(=O)c1cccc(-c2csc(N3C(=O)OCC3(C)C)n2)c1` [Example 102, 3-{4-[3-(Ethylsulfonyl)phenyl]-1,3-thiazol-2-yl}-4,4-dimethyl-1,3-oxazolidin-2-one], the inhibition at 3 µM is 27%.

Regarding `CC1(C)COC(=O)N1c1nc(-c2ccc(CC#N)cc2)cs1` [Example 103, {4-[2-(4,4-Dimethyl-2-oxo-1,3-oxazolidin-3-yl)-1,3-thiazol-4-yl]phenyl}acetonitrile], the IC50 was 262 nM.

On to `CC1(C)COC(=O)N1c1nc(-c2ccoc2)cs1` [Example 104, 3-[4-(3-Furyl)-1,3-thiazol-2-yl]-4,4-dimethyl-1,3-oxazolidin-2-one], for which the inhibition at 3 µM came out at 94%.

For `CC1(C)COC(=O)N1c1nc(-c2ccc3[nH]ccc3c2)cs1` [Example 105, 3-[4-(1H-Indol-5-yl)-1,3-thiazol-2-yl]-4,4-dimethyl-1,3-oxazolidin-2-one], the half-inhibitory concentration (IC50) was 110 nM.

With `CC(=O)c1ccc(-c2csc(N3C(=O)OCC3(C)C)n2)cc1` [Example 106, 3-[4-(4-Acetylphenyl)-1,3-thiazol-2-yl]-4,4-dimethyl-1,3-oxazolidin-2-one], the IC50 is 498 nM.

Consider `CC(=O)c1cccc(-c2csc(N3C(=O)OCC3(C)C)n2)c1` [Example 107, 3-[4-(3-Acetylphenyl)-1,3-thiazol-2-yl]-4,4-dimethyl-1,3-oxazolidin-2-one], for which the IC50 was 83.7 nM.

Consider `COc1ccc(-c2csc(N3C(=O)OCC3(C)C)n2)cc1OC` [Example 108, 3-[4-(3,4-Dimethoxyphenyl)-1,3-thiazol-2-yl]-4,4-dimethyl-1,3-oxazolidin-2-one], for which the half-inhibitory concentration (IC50) worked out at 823 nM.

With `CC1(C)COC(=O)N1c1nc(-c2ccc(Cl)c(F)c2)cs1` [Example 109, 3-[4-(4-Chloro-3-fluorophenyl)-1,3-thiazol-2-yl]-4,4-dimethyl-1,3-oxazolidin-2-one], the concentration for half-maximal inhibition (IC50) was 28.8 nM.

As to `CC1(C)OCCN1c1nc(-c2ccc(C#N)cc2)cs1` [Example 110, 4-[2-(2,2-Dimethyl-1,3-oxazolidin-3-yl)-1,3-thiazol-4-yl]benzonitrile], the half-inhibitory concentration (IC50) was found to be 269 nM.

With `N#Cc1ccc(-c2csc(N3CCOC3=O)c2)cc1` [Example 112, 4-[5-(2-Oxo-1,3-oxazolidin-3-yl)-3-thienyl]benzonitrile], the half-maximal inhibitory concentration (IC50) was 480 nM.

Turning to `CC1(C)COC(=O)N1c1nc(-c2ccc(Cl)cc2)cs1` [Example 114, 3-[4-(4-Chlorophenyl)-1,3-thiazol-2-yl]-4,4-dimethyl-1,3-oxazolidin-2-one], the inhibition at 0.03 µM (% inhibition at 30 nM) was found to be 53%.

With `CC1(C)COC(=O)N1c1nc(-c2ccc(F)cc2)cs1` [Example 115, 3-[4-(4-Fluorophenyl)-1,3-thiazol-2-yl]-4,4-dimethyl-1,3-oxazolidin-2-one], the half-maximal inhibitory concentration (IC50) was 72.2 nM.

One may read the IC50 as the concentration that gives 50% inhibition. A word on the inhibition: it is the percentage by which the read-out fell short of the control.

The values are drawn from patent publication US7618990B2, “Oxazolidone derivatives as PR modulators” (Wyeth, priority 2006, dated 2009).
